Assay results taken from US20040009185A1, “Enhancing the immune response to an antigen by presensitzing with an inducing agent prior to immunizing with the agent and the antigen” (priority 2003, published 2004).

Key:
modified gp100 = test system: modified gp100; design: species or system A2Kb transgenic mice; settings: mouse, in vivo
[1] = test system: gp100 (native or modified); assay type: in vivo, A2Kb transgenic mice; settings: priming with 20.0 μg toxoid i.m., then ALVAC gp100 recombinant given as a mixture with the toxoid; FIGS. 7 and 8
CEA = assay type: in vivo, A2Kb transgenic mice; settings: priming with 20.0 μg toxoid i.m., then ALVAC CEA recombinant given as a mixture with the toxoid; FIG. 6

Row | Substance | immune response to the immunogen modified gp100 (gp100-specific CTL response) (modified gp100) | immune response to the modified gp100 and gp100 antigens (reactive T cells, IFN gamma ELISPOT) [1] | immune response to the CEA antigen (reactive T cells, IFN gamma ELISPOT) (CEA)
1 | tetanus toxoid | clearly enhanced | clearly enhanced | clearly enhanced
2 | diphtheria toxoid |  | clearly enhanced | clearly enhanced
